Source: patent publication US20060281778A1, “Compounds for inhibiting KSP Kinesin activity” (Schering Corporation, priority 2005, published 2006)

These compounds were tested against T1, KSP motor domain (Homo sapiens, UniProt P52732) (assay: KSP endpoint assay (microtubule-stimulated ATPase, Biomol green, OD620)). Conditions: not given.
T1 sequence (P52732 18-359 limits assumed): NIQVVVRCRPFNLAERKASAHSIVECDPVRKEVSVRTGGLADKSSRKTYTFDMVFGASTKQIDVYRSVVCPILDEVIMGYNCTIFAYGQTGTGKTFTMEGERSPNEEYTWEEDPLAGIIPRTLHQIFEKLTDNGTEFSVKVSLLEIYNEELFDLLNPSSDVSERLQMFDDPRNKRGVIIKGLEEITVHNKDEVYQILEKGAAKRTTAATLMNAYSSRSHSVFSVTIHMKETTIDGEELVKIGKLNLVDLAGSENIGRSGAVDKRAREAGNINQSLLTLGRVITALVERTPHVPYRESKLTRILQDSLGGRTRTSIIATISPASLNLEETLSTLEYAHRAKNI
Type: biochemical
Protocol: Serial dilutions of the compounds were prepared in a low binding, 96-well microtiter plate (Costar #3600) using 40% DMSO (Fisher BP231). The diluted compounds were added to a 384-well microtiter plate (Fisher 12-565-506). […] Following a 10 minute incubation, ATP (Sigma A-3377) (final concentration of ATP: 100 μM) was added to start the reaction. The final reaction volume was 25 μL. Final test compound concentration ranged from 50 μM to 5 nM, and 10 μM to 0.128 nM. The reaction was incubated for 1 hour at room temperature. The reaction was stopped by the addition of 50 μL Biomol green reagent (Biomol AK111) per well, and was allowed to incubate for 20 minutes at room temperature. The 384-well microtiter plate was then transferred to an absorbance reader (Molecular Devices SpectraMax plus) and a single measurement was taken at 620 nm.
For both endpoint and kinetic assays, the percent activity for each concentration is calculated using the following equation: Y=((X−background)/(positive control−background))*100
Y is the % activity and X is the measured reading (OD620 or rate)
For an IC50 determination, the % activity was fit by the following equation using a nonlinear curve-fitting program for sigmoidal dose-responses (variable slopes) (GraphPad Prizm). Y=Bottom+(Top−Bottom)/(1+10ˆ((Log EC50−X)*HillSlope))
All IC50 values are obtained from the end point assay.
`C[Si](C)(C)c1ccc2nc3sc(C(N)=O)cc3cc2c1` [Compound 12, 6-(trimethylsilyl)thieno[2,3-b]quinoline-2-carboxamide] gave an IC50 of 38 nM.

Same assay, conditions: endpoint assay; 2.5-10 nM KSP motor domain, 55 μg/mL microtubules, 100 μM ATP, 1 hour at room temperature; read-out: IC50 (KSP inhibitory activity, endpoint assay)
`CC(C)(C)c1ccc2nc3sc(C(=O)N[C@H](CN)c4cccc(NC(=O)c5cnccn5)c4)cc3cc2c1` [Compound 15, 6-tert-butyl-thieno[2,3-b]quinoline-2-carboxylic acid (2-amino-1(S)-{3-[(pyrazine-2-carbonyl)-amino]-phenyl}-ethyl)-amide] showed an IC50 of 30 nM.
`CC(C)(C)c1ccc2nc3sc(C(=O)N[C@H](CN)c4cccc(N)c4)cc3cc2c1` [Compound 14, 6-tert-butyl-thieno[2,3-b]quinoline-2-carboxylic acid [2(S)-amino-1-(3-amino-phenyl)-ethyl]-amide] was tested, and the IC50 was 25 nM.
Compound `Cc1cc(C(=O)Nc2cccc([C@@H](CN)NC(=O)c3cc4cc5cc(C(C)(C)C)ccc5nc4s3)c2)no1` [Compound 17, 6-tert-butyl-thieno[2,3-b]quinoline-2-carboxylic acid (2-amino-1(S)-{3-[(5-methyl-isoxazole-3-carbonyl)-amino]-phenyl}-ethyl)-amide] has an IC50 of 36 nM.
In the case of `CC(C)(C)c1ccc2nc3sc(C(=O)N[C@H](CN)c4cccc(NC(=O)c5nccnc5N)c4)cc3cc2c1` [Compound 16], the IC50 is reported as 26 nM.
With `CC(C)(C)c1ccc2nc3sc(C(=O)NCC#N)cc3cc2c1` [Compound 9, 6-tert-butyl-thieno[2,3-b]quinoline-2-carboxylic acid cyanomethylamide] the IC50 was 600 nM.
In the case of `COc1ccc(CN2CC(NC(=O)c3cc4cc5cc(C(C)(C)C)ccc5nc4s3)C2=O)c(OC)c1` (centres unmarked) [Compound 10, 6-tert-butyl-thieno[2,3-b]quinoline-2-carboxylic acid [1-(2,4-dimethoxybenzyl)-2-oxo-azetidin-3-yl]amide], the IC50 is reported as > 10000 nM.
Work on `CC(C)(C)c1ccc2nc3sc(C(=O)NC4CNC4=O)cc3cc2c1` (centres unmarked) [Compound 11, 6-tert-butyl-thieno[2,3-b]quinoline-2-carboxylic acid (2-oxo-azetidin-3-yl)amide] yielded an IC50 of 8400 nM.
In the case of `CC(C)(C)c1ccc2nc3sc(C(=O)N[C@H](CN)c4ccccc4)cc3cc2c1` [Compound 13, 6-tert-butyl-thieno[2,3-b]quinoline-2-carboxylic acid (2-amino-1-(S)-phenyl-ethyl)-amide], the IC50 is reported as 35 nM.
In the case of `CC(C)(C)c1ccc2nc3sc(C(=O)O)cc3cc2c1` [Compound 3, 6-tert-butyl-thieno[2,3-b]quinoline-2-carboxylic acid], the IC50 is reported as > 10000 nM.
With `CN(C)CCNC(=O)c1cc2cc3cc(C(C)(C)C)ccc3nc2s1` [Compound 7, 6-tert-butyl-thieno[2,3-b]quinoline-2-carboxylic acid (2-dimethylaminoethyl)-amide] the IC50 was > 10000 nM.
`CC(C)(C)OC(=O)NCCNC(=O)c1cc2cc3cc(C(C)(C)C)ccc3nc2s1` [Compound 4, {2-[(6-tert-Butyl-thieno[2,3-b]quinoline-2-carbonyl)amino]ethyl}carbamic acid tert-butyl ester] was tested, and the IC50 was > 10000 nM.
Compound `CNCCNC(=O)c1cc2cc3cc(C(C)(C)C)ccc3nc2s1` [Compound 6, 6-tert-butyl-thieno[2,3-b]quinoline-2-carboxylic acid (2-methylaminoethyl)amide] has an IC50 of 290 nM.
`CC(C)(C)c1ccc2nc3sc(C(=O)NCCN)cc3cc2c1` [Compound 5, 6-tert-butyl-thieno[2,3-b]quinoline-2-carboxylic acid (2-aminoethyl)amide] gave an IC50 of 70 nM.
Compound `CC(C)(C)c1ccc2nc3sc(C(=O)NCCC#N)cc3cc2c1` [Compound 8, 6-tert-Butyl-thieno[2,3-b]quinoline-2-carboxylic acid (2-cyanoethyl)amide] has an IC50 of 9000 nM.
`CC(C)(C)c1ccc2nc3sc(C(N)=O)cc3cc2c1` [Compound 2, 6-tert-butyl-thieno[2,3-b]quinoline-2-carboxylic acid amide] showed an IC50 of 80 nM.
Work on `CC(C)(C)c1ccc2nc3sc(C#N)cc3cc2c1` [Compound 1, 6-tert-butyl-thieno[2,3-b]quinoline-2-carbonitrile] yielded an IC50 of 160 nM.
